Test results taken from US20230028441A1, “NOVEL HETEROARYL-TRIAZOLE COMPOUNDS AS PESTICIDES” (Bayer Aktiengesellschaft, priority 2019, published 2023).

Experiments:
Type in all cases: in vivo
[1] = tested on: adult unfed cat fleas (Ctenocephalides felis); assay: Ctenocephalides felis oral test; conditions: 48 h, 100 ppm in cattle blood, after 2 days
Description: (§1) Solvent: dimethyl sulfoxide
To produce a suitable preparation of active compound, 10 mg of active compound are dissolved in 0.5 mL solvent, and the concentrate is diluted with cattle blood to the desired concentration.
Approximately 20 adult unfed cat fleas (Ctenocephalides felis) are placed in flea chambers. The blood chamber, sealed with parafilm on the bottom, are filled with cattle blood supplied with compound solution and placed on the gauze covered top of the flea chamber, so that the fleas are able to suck the blood. The blood chamber is heated to 37° C. whereas the flea chamber is kept at room temperature.
After 2 days mortality in % is determined. 100% means all the fleas have been killed; 0% means none of the fleas have been killed.

[2] = tested on: fall armyworm larvae (Spodoptera frugiperda); assay: Spodoptera frugiperda spray test (maize leaf sections); conditions: 168 h
Description: Solvent: 78.0 parts by weight acetone • 1.5 parts by weight dimethylformamide
(§2) Emulsifier: alkylarylpolyglycol ether
(§3) To produce a suitable preparation of active compound, 1 part by weight of active compound is mixed with the stated amount of solvents and is diluted with water, containing an emulsifier concentration of 1000 ppm, to the desired concentration. Further test concentrations are prepared by dilution with emulsifier containing water.
Maize (Zea mays) leaf sections are sprayed with a preparation of the active ingredient of the desired concentration. Once dry, the leaf sections are infested with fall armyworm larvae (Spodoptera frugiperda).
After 7 days mortality in % is determined. 100% means all caterpillars have been killed and 0% means none of the caterpillars have been killed.

[3] = tested on: adult engorged female ticks (Rhipicephalus microplus); assay: Rhipicephalus (Boophilus) microplus injection test; conditions: 168 h, egg deposition after 7 days, read-out: efficacy (infertile eggs); for pest or weed control at 0.004 mg: 4 μg/animal; for pest or weed control at 0.02 mg: 20 μg/animal
Description: as §1
To produce a suitable preparation of active compound, 10 mg of active compound are dissolved in 0.5 mL solvent, and the concentrate is diluted with solvent to the desired concentration.
Five adult engorged female ticks (Rhipicephalus microplus) are injected with 1 μL compound solution into the abdomen. The ticks are transferred into replica plates and incubated in a climate chamber.
After 7 days egg deposition of fertile eggs is monitored. Eggs where fertility is not visible are stored in a climate chamber till hatching after about 42 days. An efficacy of 100% means all eggs are infertile; 0% means all eggs are fertile.

[4] = tested on: green peach aphid (Myzus persicae); assay: Myzus persicae oral test; conditions: 120 h
Description: Solvent: 100 parts by weight acetone
To produce a suitable preparation of active compound, 1 part by weight of active compound is mixed with the stated amount of solvent, and the concentrate is diluted with water to the desired concentration.
50 μL compound solution is filled in microtiter plates and 150 μL IPL41 insect medium (33%+15% sugar) is added to obtain a total volume of 200 μL per well. Afterwards the plates are sealed with parafilm through which a mixed population of the green peach aphid (Myzus persicae) can suck on the compound preparation.
After 5 days mortality in % is determined. 100% means all aphids have been killed and 0% means none of the aphids have been killed.

[5] = tested on: cattle tick larvae (Rhipicephalus microplus), strain Parkhurst, resistant against synthetic pyrethroids; assay: Rhipicephalus (Boophilus) microplus in-vitro contact test, larval cattle tick; conditions: 5 μg/cm^2 (=500 g/ha), after 48 hours, read-out: efficacy (larvae dead or moribund)
Description: (§4) 9 mg compound is solved in 1 mL acetone and diluted with acetone to the desired concentration. 250 μL of the test solution is filled in 25 mL glass test tubes and homogeneously distributed on the inner walls by rotation and tilting on a shaking device (2 h at 30 rpm). With a compound concentration of 900 ppm, an inner surface of 44.7 cm^2 and a homogeneous distribution, a dose of 5 μg/cm^2 is achieved.
After the solvent has evaporated, each test tube is filled with 20-50 cattle tick larvae (Rhipicephalus microplus), closed with a perforated lid and incubated in a horizontal position at 85% relative humidity and 27° C. in an incubator. After 48 hours efficacy is determined. The larvae are patted on the ground of the tubes and negative geotactic behaviour is recorded.
An efficacy of 100% means all larvae are dead or moribund; 0% means no larvae are dead or moribund.

[6] = tested on: larvae of the banded cucumber beetle (Diabrotica balteata); assay: Diabrotica balteata spray test; conditions: 168 h, 100 g/ha (=32 μg/well), after 7 days, wheat seeds, read-out: efficacy (seedlings grown up)
Description: (§5) Solvent: 78.0 parts by weight of acetone • • 1.5 parts by weight of dimethylformamide
as §2
as §3, with “solvent,” for “solvents”, “and the concentrate” for “and”
Soaked wheat seeds (Triticum aestivum) are placed in a multiple well plate filled with agar and some water and are incubated for 1 day to germinate (5 seeds per well). The germinated wheat seeds are sprayed with a test solution containing the desired concentration of the active ingredient. Afterwards each unit is infected with 10-20 larvae of the banded cucumber beetle (Diabrotica balteata).
After 7 days efficacy in % is determined. 100% means all the seedlings have grown up like in the untreated, uninfected control; 0% means none of the seedlings have grown.

[7] = tested on: adult brown dog ticks (Rhipicephalus sanguineus); assay: Rhipicephalus sanguineus in-vitro contact test with adult brown dog ticks; conditions: after 48 hours, read-out: efficacy (ticks dead or moribund); for pest or weed control at 5 µg/cm2, 500 g/ha: 5 μg/cm^2 (=500 g/ha)
Description: as §4
After the solvent has evaporated, each test tube is filled with 5-10 adult brown dog ticks (Rhipicephalus sanguineus), closed with a perforated lid and incubated in a lying position at room temperature and relative humidity. After 48 hours efficacy is determined. The ticks are patted on the ground of the tubes and are incubated on a heating plate at 45-50° C. for at most 5 minutes. Immotile or uncoordinated moving ticks, which are not able to escape the heat by climbing upwards, are marked as dead or moribund.
An efficacy of 100% means all ticks are dead or moribund; 0% means no ticks are dead or moribund.

[8] = tested on: larvae of the southern green stink bug (Nezara viridula); assay: Nezara viridula spray test; conditions: in Hordeum vulgare, 96 h
Description: as §5, §2
as §3, with “solvent,” for “solvents”, “and the concentrate” for “and”
Barley plants (Hordeum vulgare) infested with larvae of the southern green stink bug (Nezara viridula) are sprayed with a test solution containing the desired concentration of the active ingredient.
After 4 days mortality in % is determined. 100% means all the stink bugs have been killed; 0% means none of the stink bugs have been killed.

Row | Compound | mortality at 100 ppm [1] [%] | pest or weed control at 0.004 mg [3] [%] | mortality at 100 g/ha [2] [%] | mortality at 4 ppm [4] [%] | pest or weed control at 5 µg/cm2 [5] [%] | pest or weed control at 0.02 mg [3] [%] | pest or weed control at 32 µg/disc, 100 g/ha [6] [%] | also measured
1 | CC(NC(=O)c1cc(Br)cc(C(F)(F)F)c1)c1nc(-c2cnccn2)nn1-c1ncccn1 (centres unmarked) [I-048] | 100 | 100 | – | – | – | – | – | mortality at 500 g/ha [2]: 83%
2 | CC(NC(=O)c1cc(Br)cc(Br)c1)c1nc(N)nn1-c1ncccn1 (centres unmarked) [I-094] | – | – | 100 | 100 | – | – | – | –
3 | CC(NC(=O)c1cc(Cl)cc(C(F)(F)F)c1)c1nc(NC(=O)C2(Cl)CC2)nn1-c1ccc(Cl)cn1 (centres unmarked) [I-014] | 100 | 100 | 100 | – | 100 | 100 | – | mortality at 500 g/ha [2]: 100%
4 | CC(NC(=O)c1cc(Cl)cc(S(C)(=O)=O)c1)c1nc(N)nn1-c1ccc(Cl)cn1 (centres unmarked) [I-005] | 100 | 100 | – | 90 | – | 100 | – | –
5 | CC(NC(=O)c1cncc(C(F)(F)F)c1)c1nc(-c2ncccn2)nn1-c1ncccn1 (centres unmarked) [I-053] | 100 | – | – | 90 | – | – | – | –
6 | CC(NC(=O)c1cc(Cl)cc(C(F)(F)F)c1)c1nc(-c2cnccn2)nn1-c1ccc(Cl)cn1 (centres unmarked) [I-040] | 100 | 100 | – | – | 100 | 100 | – | –
7 | CNc1nc([C@H](C)NC(=O)c2cc(C(F)(F)F)cc(C(F)(F)F)c2)n(-c2ncc(C(=O)N3CCOCC3)s2)n1 [I-126, N-[(1S)-1-[5-(methylamino)-2-[5-(morpholine-4-carbonyl)thiazol-2-yl]-1,2,4-triazol-3-yl]ethyl]-3,5-bis(trifluoromethyl)benzamide] | – | – | 100 | – | – | – | 100 | pest or weed control at 5 µg/cm2, 500 g/ha [7]: 80%; mortality at 500 g/ha [8]: 100%
8 | CC(NC(=O)c1cc(Cl)cc(C(F)(F)F)c1)c1nc(-c2cnccn2)nn1-c1ncccn1 (centres unmarked) [I-047] | 100 | 100 | – | – | – | 100 | – | mortality at 500 g/ha [2]: 83%
9 | CC(NC(=O)c1cc(Cl)cc(Cl)c1)c1nc(-c2cnccn2)nn1-c1ncccn1 (centres unmarked) [I-046] | 100 | 100 | – | – | – | 100 | – | mortality at 500 g/ha [2]: 100%
10 | CC(NC(=O)c1cc(Cl)cc(C(F)(F)F)c1)c1nc(C#N)nn1-c1ccc(C#N)cn1 (centres unmarked) [I-081] | 90 | 100 | – | – | 100 | – | 100 | –
11 | CC(NC(=O)c1cc(C(F)(F)F)cc(C(F)(F)F)c1)c1nc(Cc2ccccc2)nn1-c1ncccn1 (racemic) [I-082, N-[1-(5-benzyl-2-pyrimidin-2-yl-1,2,4-triazol-3-yl)ethyl]-3,5-bis(trifluoromethyl)benzamide] | 100 | 100 | – | – | – | – | 80 | –
12 | CC(NC(=O)c1cc(Cl)cc(S(C)(=O)=O)c1)c1nc(S(C)(=O)=O)nn1-c1ccc(Cl)cn1 (racemic) [I-060, 3-chloro-N-[1-[2-(5-chloro-2-pyridyl)-5-methylsulfonyl-1,2,4-triazol-3-yl]ethyl]-5-methylsulfonyl-benzamide] | – | 100 | – | 100 | – | 100 | – | mortality at 100 g/ha [8]: 100%; mortality at 500 g/ha [8]: 100%
13 | CC(NC(=O)c1cc(Cl)cc(S(C)(=O)=O)c1)c1nc(NS(C)(=O)=O)nn1-c1ccc(Cl)cn1 (racemic) [I-025, 3-chloro-N-[1-[2-(5-chloro-2-pyridyl)-5-(methanesulfonamido)-1,2,4-triazol-3-yl]ethyl]-5-methylsulfonyl-benzamide] | – | – | – | 90 | – | – | – | –
14 | CC(NC(=O)c1cc(Cl)cc(C(F)(F)F)c1)c1nc(NC(=O)[C@@H]2C[C@@H]2F)nn1-c1ncccn1 (some centres unmarked) [I-024] | – | – | 100 | 100 | – | – | 100 | –
15 | CC(NC(=O)c1cc(Cl)nc(Cl)c1)c1nc(-c2cnccn2)nn1-c1ccc(Cl)cn1 (centres unmarked) [I-035] | 100 | – | – | – | 100 | 100 | – | –
16 | CC(NC(=O)c1cc(Cl)cc(C(C)(C)C#N)c1)c1nc(N2CCOCC2)nn1-c1ccc(C#N)cn1 (centres unmarked) [I-159] | – | – | 100 | – | 100 | – | 100 | pest or weed control at 1 µg/cm2, 100 g/ha ([7]; 1 μg/cm^2 (=100 g/ha)): 100%; mortality at 500 g/ha [8]: 90%
17 | CC(NC(=O)c1cc(Cl)cc(Br)c1)c1nc(N)nn1-c1ncccn1 (centres unmarked) [I-108] | – | – | 100 | 100 | 90 | – | 100 | –
18 | CC(NC(=O)c1cc(Cl)cc(C(F)(F)F)c1)c1nc(-c2ccc(Cl)nc2)nn1-c1ccc(Cl)cn1 (centres unmarked) [I-032] | – | – | – | – | – | – | – | pest or weed control at 5 µg/cm2, 500 g/ha [7]: 80%
19 | CC(NC(=O)c1cc(Cl)cc(S(C)(=O)=O)c1)c1nc(-c2ccco2)nn1-c1ncccn1 (centres unmarked) [I-057] | 100 | 80 | – | 100 | – | 100 | – | –
20 | CC(NC(=O)c1cc(Cl)cc(S(C)(=O)=O)c1)c1nc(NC(=O)C2CC2(F)F)nn1-c1ncccn1 (centres unmarked) [I-021] | 100 | 80 | – | – | – | – | – | mortality at 100 g/ha [8]: 90%
21 | CC(NC(=O)c1cc(Br)cc(C(F)(F)F)c1)c1nc(-c2cnccn2)nn1-c1ccc(Cl)cn1 (centres unmarked) [I-036] | 100 | – | 100 | – | 100 | 100 | – | mortality at 500 g/ha [2]: 100%
22 | CC(NC(=O)c1cc(Cl)cc(C(F)(F)F)c1)c1nc(NC(=O)C2CC2)nn1-c1ncccn1 (centres unmarked) [I-023] | – | – | 100 | 100 | – | – | 100 | mortality at 100 g/ha [8]: 90%
23 | CC(NC(=O)c1cc(Cl)cc(C(F)(F)F)c1)c1nc(Cc2ccccc2)nn1-c1ncccn1 (centres unmarked) [I-083] | 90 | – | – | – | – | – | 100 | –
